Earlier results in patent publication US6627208B2, “Biocidal material with improved activity” (Eastman Kodak Company, priority 1999, dated 2003).
≈ marks a conversion by molar mass, not a printed value.

Conditions: limit of solubility

Compound: CCCCCCCCn1sc(Cl)c(Cl)c1=O [Kathon 287T®]
- solubility in water: 5 mg/L (≈ 17.7 µM)
